The subject of series [1] is T. cruzi Tulahuen strain (amastigotes and trypomastigotes). As to the kind of experiment: Anti-T. cruzi activity assay (amastigotes and trypomastigotes) in infected L929 cells, beta-galactosidase reporter. The class given is cell-based, Trypanosoma cruzi. The following applies: 96 h exposure. As to the method: Anti-T. cruzi activity assay (amastigotes and trypomastigotes) - The in vitro anti-T. cruzi activity was evaluated on L929 cells (mouse fibroblasts) infected with Tulahuen strain of the parasite expressing the Escherichia coli β-galactosidase as reporter gene according to the method described previously.[49] Briefly, for the bioassay, 4,000 L929 cells were added to each well of a 96-well microtiter plate. After an overnight incubation, 40,000 trypomastigotes were added to the cells and incubated for 2 h. Then the medium containing extracellular parasites was replaced with 200 μL of fresh medium and the plate was incubated for an additional 48 h to establish the infection. For IC50 determination, the cells were exposed to each synthesized compound at serial decreasing dilutions and the plate was incubated for 96 h. After this period, 50 μL of 500 μM chlorophenol red beta-D-galactopyranoside (CPRG) in 0.5% Nonidet P40 was added to each well, and the plate was incubated for 16 to 20 h, after which the absorbance at 570 nm was measured. Controls with uninfected cells, untreated infected cells, infected cells treated with benznidazole at 3.8 μM (positive control) or DMSO 1% were used. The results were expressed as the percentage of T. cruzi growth inhibition in compound tested cells as compared to the infected cells and untreated cells. The IC50 values were calculated by linear interpolation. Quadruplicates were run in the same plate, and the experiments were repeated at least once.
(§1) IC50 over T. cruzi and L929 cells were determined by linear interpolation and the selectivity index (SI) was calculated by the ratio of CC50 L929 cells/ IC50 T. cruzi.

The subject of series [2] is L929 cells (mouse fibroblasts). As to the kind of experiment: In vitro cytotoxicity over L929 cell line (alamarBlue). The class given is cell-based. The following applies: ratio CC50 L929 / IC50 T. cruzi. Here is the method: (§2) In vitro cytotoxic activity test of compounds and CC 50 determination over L929 cell line - For this bioassay, 4,000 L929 cells in 200 μL of RPMI-1640 medium (pH 7.2-7.4) (Gibco BRL) plus 10% foetal bovine serum and 2 mM glutamine were added to each well of a 96-well microtiter plate that was incubated for three days at 37 °C. The medium was then replaced, and the cells were exposed to compounds at increasing concentrations starting at IC50 value for T. cruzi. After 96 h of incubation with the compounds the alamarBlueTM was added and the absorbance at 570 and 600 nm was measured after 4-6 h. Controls with untreated and DMSO 1%-treated cells were run in parallel. The results were expressed as the percent difference in the reduction between treated and untreated cells. The compound concentration that inhibits 50% of the L929 cell viability (CC50) was determined. Quadruplicates were run in the same plate and the experiments were repeated at least once.
as §1
In general terms: Alamar Blue is a resazurin reagent that responds to reducing activity.

Series [3] deals with cruzain. The following applies: cited from earlier work.
Series [4] deals with mammalian cathepsin B. More on the design: method as in PMID 28215783, PMID 32116030. The conditions noted are these: cited from earlier work.
Series [5] has as its system mammalian cathepsin S. More on the design: method as in PMID 28215783, PMID 32116030. The following applies: cited from earlier work.
Series [6] addresses T1, Recombinant TbrCatL (Trypanosoma brucei rhodesiense, UniProt Q95PM0).
T1 construct: gift: Prof Conor Caffrey (University of California San Diego)
As to the kind of experiment: TbrCatL inhibition, cleavage of fluorogenic substrate Z-FR-AMC. The class given is biochemical, T. brucei. Here is the method:
(§3) Assays against cruzain and TbrCATL - Recombinant cruzain and TbrCatL were generously provided by Allison Doak and Prof Brian Shoichet (University of California San Francisco, San Francisco, CA, USA) and Prof Conor Caffrey (University of California San Diego, San Diego, CA, USA), respectively. Enzyme activity was measured by monitoring the cleavage of the fluorogenic substrate Z-Phe-Arg-amidomethylcoumarin (Z-FR-AMC) at 25 °C. Fluorescence was monitored at 340/440 nm (excitation/emission) in a Biotec 87 Synergy 2 fluorimeter. Assays were conducted in 96-well flat bottom black plates in 0.1 M sodium acetate buffer, pH 5.5, 10 mM β-mercaptoethanol, 0.01% Triton X-100, […] enzyme and 2.5 µM substrate. DMSO and 1 µM E-64 were employed as negative and positive controls, respectively, in all assays. Assays were performed in triplicate, and enzyme activity was measured for 5 min. Reported values correspond to the mean and standard error of the mean (SEM).
(§4) Compounds were initially screened at a concentration of 100 µM against cruzain with and without a 10 min pre-incubation with the enzyme. […] IC50 values were determined from two independent experiments, each with seven compounds concentrations in triplicate. Dose-response curves were built by non-linear regression with Graph Pad Prism 6.

The nature of series [7]: In vitro cytotoxicity over L929 cell line (alamarBlue). The class given is cell-based, mouse. The conditions noted are these: mouse, L929 cells (mouse fibroblasts); uninfected L929 cells; 96 h incubation. As to the method:
as §2, §1

The target of series [8] is T2, Recombinant cruzain (Trypanosoma cruzi, UniProt P25779).
T2 construct: gift: Allison Doak and Prof Brian Shoichet (University of California San Francisco)
T2 sequence (P25779 123-467): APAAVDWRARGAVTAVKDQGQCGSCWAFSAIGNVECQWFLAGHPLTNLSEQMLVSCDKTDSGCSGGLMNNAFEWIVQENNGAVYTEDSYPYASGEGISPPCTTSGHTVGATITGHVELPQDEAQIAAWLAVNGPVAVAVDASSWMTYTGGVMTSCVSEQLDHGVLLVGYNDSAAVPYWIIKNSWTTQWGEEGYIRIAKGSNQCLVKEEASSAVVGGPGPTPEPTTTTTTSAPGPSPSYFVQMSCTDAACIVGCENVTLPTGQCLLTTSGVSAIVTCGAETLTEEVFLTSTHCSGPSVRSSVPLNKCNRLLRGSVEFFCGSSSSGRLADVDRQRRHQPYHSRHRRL
As to the kind of experiment: Cruzain inhibition, cleavage of fluorogenic substrate Z-FR-AMC. The class given is biochemical. The conditions noted are these: for inhibition at 23 µM: compound at 23 µM. Here is the method: as §3, §4
To evaluate the effects of Triton X-100 concentration on enzyme inhibition, assays were conducted using 0.1%, 0.01% and 0% Triton X-100. To access the impact of pre-incubation of bovine serum albumin (BSA) on enzyme inhibition, compounds were incubated with BSA (4 mg/mL, for a final assay concentration of 1 mg/mL) for 10’ followed by 10’ incubation with 2 nM enzyme. Finally, Z-FR-AMC was added to each well and the fluorescence was immediately read.

Setting [9] is: 100 µM compound, 10 min pre-incubation with enzyme, read-out: % Inhibition at 100 µM (Mean ± SEM) TbrCATL 10' pre-incubation.
The mark [10] stands for this setting: 100 µM compound, 10 min pre-incubation with enzyme, 0.01% Triton X-100, read-out: % Inhibition at 100 µM (Mean ± SEM) Cruzain 10' pre-incubation.
[11] abbreviates: 100 µM compound, no pre-incubation, 0.01% Triton X-100, read-out: % Inhibition at 100 µM (Mean ± SEM) Cruzain No pre-incubation.

Read-outs that look alike come from different tables or passages of the source. Where only a bound is given, the exact number is not on record here.

T1 sequence (Q95PM0 entry or part of it): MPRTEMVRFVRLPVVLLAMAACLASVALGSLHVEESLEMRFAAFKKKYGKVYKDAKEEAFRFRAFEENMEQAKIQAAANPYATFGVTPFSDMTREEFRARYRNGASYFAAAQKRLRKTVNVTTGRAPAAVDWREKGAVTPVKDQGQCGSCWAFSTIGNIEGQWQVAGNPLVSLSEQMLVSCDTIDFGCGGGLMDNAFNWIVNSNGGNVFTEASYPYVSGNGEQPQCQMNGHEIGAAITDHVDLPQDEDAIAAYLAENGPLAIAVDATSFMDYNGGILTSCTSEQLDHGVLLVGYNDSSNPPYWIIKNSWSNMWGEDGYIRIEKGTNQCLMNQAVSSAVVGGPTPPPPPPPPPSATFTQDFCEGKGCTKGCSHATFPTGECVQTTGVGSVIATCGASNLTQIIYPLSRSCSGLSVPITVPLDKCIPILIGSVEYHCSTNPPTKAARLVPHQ

Compound `O=C(Cn1ccnc1[N+](=O)[O-])NCc1ccccc1` [Benznidazole, reference compound] returned an IC50 in series [1] (Trypanosoma cruzi) of 3.8 ± 0.8 µM. Also, the “SI (selectivity index), CC50 L929 cells / IC50 T. cruzi” value in series [2] worked out at 626.

Take `Clc1ccc2[nH]c3c(NCCCN4CCOCC4)ncnc3c2c1` [Compound 1]: the IC50 in series [3] (hit from HTS) was 2.5 µM. For the same compound, the Ki in series [3] (non-covalent competitive inhibitor from HTS) was 2 µM.

With `Clc1ccc2c(NCCCN3CCOCC3)ccnc2c1` [Compound 2], the “Inhibition of mammalian cathepsin B” value in series [4] is “did not inhibit”. In addition, the “Inhibition of mammalian cathepsin S” value in series [5] is recorded as “did not inhibit”.

For the compound `CC(C)(CN)CNc1ccnc2cc(Cl)ccc12` [Compound 3], the “Inhibition of mammalian cathepsin B” value in series [4] is “did not inhibit”. Moreover, the “Inhibition of mammalian cathepsin S” value in series [5] is reported as “did not inhibit”.

With `Clc1ccc2c(NC3CCCCC3)ccnc2c1` [Compound 4, 7-chloro-N-cyclohexylquinolin-4-amine], the inhibition at 100 µM in series [6] (setting [9]) stood at 38 ± 4%; in series [8] (setting [10]), 18 ± 2%; in series [8] (setting [11]), 19 ± 1%. Besides, half-maximal inhibition in series [1] (Trypanosoma cruzi) (IC50) required 2.57 ± 0.11 µM. Also, the CC50 at 96 h in series [7] was < 2.3 µM.

For `Clc1ccc2c(NCc3ccco3)ccnc2c1` [Compound 5, 7-chloro-N-(furan-2-ylmethyl)quinolin-4-amine], the inhibition at 100 µM in series [6] (setting [9]) was determined as 94 ± 1%; in series [6] (100 µM compound, no pre-incubation, read-out: % Inhibition at 100 µM (Mean ± SEM) TbrCATL No pre-incubation) it was 87 ± 3%; in series [8] (setting [10]), 99 ± 1%; in series [8] (setting [11]), 93 ± 1%. Also, the IC50 in series [6] (two independent experiments, seven concentrations in triplicate, read-out: IC50 against TbrCatL) stood at 29 µM; in series [1] (Trypanosoma cruzi) it was 143 µM; in series [8] (two independent experiments, seven concentrations in triplicate, read-out: IC50 against cruzain), 23 µM. Besides, the inhibition at 23 µM in series [8] (0.01% Triton X-100, read-out: % Inhibition of cruzain (Mean ± SEM) Triton 0.01%) turned out to be 28.4 ± 2%; in series [8] (0.1% Triton X-100, read-out: % Inhibition of cruzain (Mean ± SEM) Triton 0.1%) it was 28.4 ± 3%; in series [8] (no Triton X-100, read-out: % Inhibition of cruzain (Mean ± SEM) Triton 0%), 100 ± 1%; in series [8] (pre-incubation with BSA (final 1 mg/mL), no Triton X-100, read-out: % Inhibition of cruzain (Mean ± SEM) BSA + Triton 0%), 32.2 ± 1%.

With “N-butyl-7-chloroquinolin-4-amine [Compound 6]”, the “% Inhibition at 100 µM (Mean ± SEM) TbrCATL 10' pre-incubation” value in series [6] (100 µM compound, 10 min pre-incubation with enzyme) was 42 ± 4%. In series [1], this compound returned a half-maximal inhibitory concentration (IC50) of 150 µM. The “% Inhibition at 100 µM (Mean ± SEM) Cruzain 10' pre-incubation” value in series [8] (100 µM compound, 10 min pre-incubation with enzyme, 0.01% Triton X-100) was 35 ± 1%. Also, the “% Inhibition at 100 µM (Mean ± SEM) Cruzain No pre-incubation” value in series [8] (100 µM compound, no pre-incubation, 0.01% Triton X-100) was 35 ± 1%.

Usually IC50 stands for the concentration that inhibits the measured activity by half. A word on the inhibition: it is the percentage by which the read-out fell short of the control. In general, CC50 refers to the concentration that lowers cell viability or growth by half. The low end stands for greater toxicity to the cells, the high end for lower toxicity to the cells. One may read the % Inhibition as the relative decrease from the control value, in per cent.

(Values after paper PMC11809514, “Investigation of the activity of 4-aminoquinolines as cysteine protease inhibitors with application in the treatment of Chagas disease” (Memórias do Instituto Oswaldo Cruz, 2025).)
